According to PubChem BioAssay AID1996:
≈ marks a conversion by molar mass, not a printed value.

Settings: buffer; pH 7.4; 200.0 µM

Row | SMILES | solubility kinetic [µg/mL]
1 | COc1ccc(NC(=O)c2cc3ccccc3o2)cn1 | 3.8 (≈ 14.2 µM)
2 | Cc1ccc(C(=O)NC(C)c2ccc(-n3ccnc3)cc2)cc1 (stereo not drawn) | > 45.8
3 | Cc1ccc(S(=O)(=O)Nc2ccc3ccccc3n2)cc1 | 33.5 (≈ 112 µM)
4 | CCN(CC)C(=O)c1cccc(C)c1 | 19.6 (≈ 102 µM)
5 | O=S(=O)(Nc1cccc2ccccc12)c1ccccc1F | 1.5 (≈ 4.98 µM)
6 | CCOc1ccc(S(=O)(=O)NC(C)C(=O)NCc2ccncc2)cc1 (stereo not drawn) | > 54.5
7 | Cc1cc(O)c(C2(O)C(=O)Nc3ccccc32)cc1C (stereo not drawn) | > 40.4
8 | COc1cc(CC2C(=O)Nc3ccccc32)cc(C)c1O (stereo not drawn) | > 42.5
9 | O=C(COc1ccc(Cl)cc1)NCCCNC(=O)c1ccccn1 | 50.5 (≈ 145 µM)
10 | COc1ccccc1C(=O)NCC(=O)Nc1ccc2c(c1)OCO2 | 10.5 (≈ 32 µM)
11 | COc1ccc(CCC(=O)NCCOc2ccccc2Cl)cc1 | > 50.1
12 | O=C(Nc1cccc(S(=O)(=O)NC2=NCCC2)c1)c1ccc(F)cc1F | 25.8 (≈ 68 µM)
13 | CC(C)(C)C(=O)NC1(C(F)(F)F)NC(=O)N(c2ccccc2F)C1=O (stereo not drawn) | > 54.2
14 | O=C(Nc1nc2ccsc2c(=O)s1)c1ccc(F)cc1Cl | < 0.4
15 | O=C(Oc1cccc(OC(=O)N2CCCCC2)c1)N1CCCCC1 | 20.8 (≈ 62.6 µM)
16 | COc1ccc(-c2cc(C(F)(F)F)c(C#N)c(=O)[nH]2)cc1 | 21.2 (≈ 72.1 µM)
17 | CCOC(=O)C1CCCN(Cc2nc(C3CC3)no2)C1 (stereo not drawn) | 36.5 (≈ 131 µM)
18 | COc1ccc(C(=O)NCCNC(=O)c2ccccn2)cc1 | > 44.9
19 | COc1ccc(Nc2nc(N)c(C(=O)c3ccc(F)cc3)s2)cc1 | 5.2 (≈ 15.1 µM)
20 | O=C(/C=C/c1ccc(-c2cccc([N+](=O)[O-])c2)o1)N1CCOCC1 | 3.9 (≈ 11.9 µM)

Row | SMILES | solubility kinetic [µg/mL]
21 | O=C(OCC(=O)N1CCOCC1)c1cccc(F)c1 | > 40.1
22 | Cc1cc2c(cc1S(=O)(=O)N(C)c1ccccc1)n(C)c(=O)n2C | > 51.8
23 | O=C(COC(=O)c1cccc(O)c1)NCc1ccc2c(c1)OCO2 | > 49.4
24 | O=[N+]([O-])c1cccc(-c2ccc(CN3CCN(c4ccccc4)CC3)o2)c1 | 1.4 (≈ 3.85 µM)
25 | N#CCc1ccc(NC(=O)c2ccc(CN3CCc4ccccc4C3)cc2)cc1 | 1.6 (≈ 4.19 µM)
26 | COc1ccc2cc(C#N)c(N3CCOCC3)nc2c1 | 4.2 (≈ 15.6 µM)
27 | O=C(c1cc(Cl)ccc1O)N1CCN(S(=O)(=O)Cc2ccccc2)CC1 | > 59.2
28 | C=CCN=C1S/C(=C\N(C)C)C(=O)N1S(=O)(=O)c1ccc(C)cc1 | 2.8 (≈ 7.66 µM)
29 | CC(NC(=O)CCl)c1ccccc1Br (stereo not drawn) | > 41.5
30 | O=C(CCC(=O)c1ccccc1)NCc1ccccc1 | > 40.1
31 | Cc1ccc(Nc2nc(N)c3ccccc3n2)cc1C.Cl | 5.9
32 | Cn1ncc(Cl)c1C(=O)N1CCN(c2ccccc2)CC1 | > 45.7
33 | COc1cc(OC)c(C(=O)NCC2CCCO2)cc1OC (stereo not drawn) | > 44.3
34 | Cc1ccc(NC(=S)N2CCCCC2CO)cc1C (stereo not drawn) | > 41.8
35 | CC(=O)c1ccc(OCC(=O)OC(C)C(=O)NC2CCCCC2)cc1 (stereo not drawn) | > 52.1
36 | Cc1c(C(=O)NCc2ccco2)oc2ccccc12 | 6.3 (≈ 24.7 µM)
37 | N#CC1=C(N)Oc2nc[nH]c(=O)c2C1c1cccs1 (stereo not drawn) | > 40.8
38 | COc1ccc(-c2csc(COC(=O)C(C)(C)C)n2)cc1 | < 0.7
39 | Cc1ccc2nc(SC(C)C(=O)NC3CCCC3)[nH]c2c1 (stereo not drawn) | > 45.5
40 | COc1ccccc1C(C)NCC(=O)NCc1ccc(C)cc1 (stereo not drawn) | > 46.9

Row | SMILES | solubility kinetic [µg/mL]
41 | Cc1ccc(NC(=O)Nc2ccc(Cl)c(Cl)c2)nc1 | < 0.2
42 | NC(=O)c1cccnc1 | 2.8 (≈ 22.9 µM)
43 | CCOc1ccc(C(=O)OCC(=O)NCC2CCCO2)cc1 (stereo not drawn) | > 46.1
44 | Cn1c(-c2ccccc2)cnc1NCc1cc(Cl)ccc1O | 1.2 (≈ 3.82 µM)
45 | CC1CC(C)CN(S(=O)(=O)c2ccc3oc(=O)ccc3c2)C1 (stereo not drawn) | 14 (≈ 43.6 µM)
46 | Nc1cncc(C(=O)O)c1 | > 20.7
47 | Cc1cccc(OCC(=O)NCc2nc(-c3ccccc3)no2)c1 | 3.1 (≈ 9.59 µM)
48 | CCOc1cccc2cc(C(=O)NCc3ccccc3)c(=N)oc12 | 2.1 (≈ 6.51 µM)
49 | Cc1cc(=O)[nH]c2ccc(S(=O)(=O)NC3CCCCC3)cc12 | 4.5 (≈ 14 µM)
50 | O=C(NNC(=O)c1ccc2nc[nH]c2c1)c1ccccc1 | > 42
51 | CCc1noc(C)c1C(=O)OCC(=O)NC(=O)c1ccccc1OC | 18.6 (≈ 53.7 µM)
52 | O=C(Nc1ccc(Cl)cc1F)C1CC1c1ccccc1 (stereo not drawn) | 1.4 (≈ 4.83 µM)
53 | Nc1ccc(C(=O)[O-])c(O)c1.O.[Na+] | > 31.7
54 | Cc1ccccc1OCC(=O)NCCCNC(=O)c1ccco1 | 43.9 (≈ 139 µM)
55 | COc1ccc(CNS(=O)(=O)NCc2ccccc2F)cc1 | 22.3 (≈ 68.7 µM)
56 | Cc1sc2ncnc(SCC(=O)N3CCOCC3)c2c1C | 39.3 (≈ 122 µM)
57 | CCN(C(=O)COC(=O)c1ccco1)c1cccc2ccccc12 | 47.4 (≈ 147 µM)
58 | N#Cc1c(/N=C/c2ccc(-c3ccccc3C(=O)O)o2)sc2c1CCCC2 | > 56.5
59 | COc1ccc(Cn2c(=O)cc(C)[nH]c2=S)cc1 | 20.2 (≈ 77 µM)
60 | CC(C)(CC(=O)O)CC(=O)Nc1ccc(Oc2ccc(C(C)(C)C)cc2)nc1 | > 57.7

More lines, now with the values ahead:

Row | solubility kinetic [µg/mL] | SMILES
61 | > 49.7 | CC(C)NC(=O)c1ccccc1NC(=O)C1CC(=O)N(C(C)C)C1 (stereo not drawn)
62 | > 37.5 | O=c1ccccn1CCOc1ccc(Cl)cc1
63 | 5.8 (≈ 19.1 µM) | CCOc1ccc(CO/N=C/c2c(C)[nH]c(=O)[nH]c2=O)cc1
64 | 0.8 (≈ 3.03 µM) | O=C(Nc1ccccc1)C(=O)c1c[nH]c2ccccc12
65 | 52.6 | CN1CCc2c(sc(NC(=O)Cc3ccc(F)cc3)c2C(N)=O)C1.Cl
66 | 2.2 (≈ 8.39 µM) | Cc1cc(NC(=O)Nc2cccc([N+](=O)[O-])c2)no1
67 | 27 (≈ 101 µM) | O=C(CSc1cccc[n+]1[O-])N1CCCCCC1
68 | 2.2 (≈ 7.07 µM) | COc1cccc(CNc2nc3ccccc3n2C(C)C)c1O
69 | > 50.6 | CC(C)C(=O)Nc1c2c(nn1-c1ccc(F)cc1)CS(=O)(=O)C2
70 | 29.1 (≈ 126 µM) | CCc1ccccc1NC(=O)Nc1ccon1
71 | > 43.9 | COC(=O)CCCN=C1SCCN1Cc1ccccc1
72 | > 57.2 | O=C(O)c1cccc(-n2c(O)c(C=C3N=c4ccccc4=N3)sc2=S)c1
73 | > 38.3 | COc1ccc(N2C(=O)c3ccccc3C2O)cc1 (stereo not drawn)
74 | > 46.3 | CCOC(=O)c1cnc(COc2ccccc2Cl)[nH]c1=O
75 | 46.4 (≈ 147 µM) | CCOc1ccc(N2CC(C(=O)N3CCCCC3)CC2=O)cc1 (stereo not drawn)
76 | > 47 | O=C(COC(=O)c1cccc2ccccc12)NCC1CCCO1 (stereo not drawn)
77 | > 51.5 | CC(C)CC1(C)NC(=O)N(CC(=O)Nc2ccc3c(c2)CCC3)C1=O (stereo not drawn)
78 | > 16.8 | O=c1cc(O)nc[nH]1
79 | 26.6 (≈ 98.8 µM) | O=C(CCc1ccccc1)Nc1ccc2c(c1)OCO2
80 | 31.7 | CCCCNCc1cc2ccccc2o1.Cl
81 | > 42.9 | CCN1CCN(c2nc3ccccn3c(=O)c2C=O)CC1
82 | > 47.3 | Br.CCCCCCCCCCn1ccc(=N)cc1
83 | > 47.2 | COCCC(=O)N1CCc2c([nH]c3ccccc23)C1C(C)(C)C (stereo not drawn)
84 | > 42.9 | CCOC(=O)N1CCC(NC(=O)CCCC(=O)O)CC1
85 | > 36.3 | Cc1cc(Cc2ccc([N+](=O)[O-])cc2)c(C)cn1
86 | 2.6 (≈ 10.1 µM) | O=C(c1ccc([N+](=O)[O-])o1)N1CCc2ccccc21
87 | 44.7 (≈ 142 µM) | COc1ccc2[nH]c3c(NCCCOC(C)C)ncnc3c2c1
88 | > 51.2 | Cc1cccc(Cn2nc(C(C)(C)C)cc2C(=O)N2CCOCC2)c1
